Data from patent US20220143148A1, “COMPOSITIONS AND METHODS FOR MODULATING CGRP SIGNALING TO REGULATE INTESTINAL INNATE LYMPHOID CELLS” (The Broad Institute, Inc., priority 2019, published 2022).

How the values were obtained:
KLRG1+ ILC2s [1] = assay: IL-25-induced in vivo ILC2 activation model; design: species or system mouse
Text: (§1) Intraperitoneal administration of α-CGRP impaired IL-25-induced expansion of KLRG1^+ ILC2s (FIGS. 5B and 12A), consistent with the in vitro results. Recent work has shown that intestinal KLRG1^+ ILC2s can migrate to mesenteric lymph nodes (mLNs) and other tissues during inflammation via sphingosine 1-phosphate (S1P)-mediated chemotaxis (Huang et al., 2018). To determine whether α-CGRP primarily impacts intestinal or mLN ILC2s, Applicants relied on the fact that intestinal GATA3^+ ILC2s are generally phenotypically KLRG1^+ST2^− (data not shown), whereas mLN ILC2s are mainly ST2^+ at steady state (FIG. 5C). IL-25 administration increased the frequency of both KLRG1^+ST2^− inflammatory ILC2s and ST2^+ ILC2s in mLNs (FIGS. 5C-E and 12B). […] Thus, α-CGRP preferentially regulates the response of intestinal KLRG1^+ST2^− ILC2s. […] Taken together, α-CGRP antagonized expansion of intestinal KLRG1^+ ILC2s in two different type 2 inflammatory models.
To activate ILC2s in vivo, 200 ng of IL-25 was intraperitoneally injected into 7-10 weeks old mice daily for two days. 1 μg α-CGRP was injected together as noted.
(§2) Flow cytometry and cell sorting. Cells were washed and suspended in MACS buffer (pH 7.4; PBS plus 2% FCS and 2 mM EDTA). Nonspecific antibody binding was blocked with CD16/CD32 (2.4G2) antibody for 15 min on ice. Cells were then stained with antibody cocktails for 30 min at 4° C. Lineage-positive cells were excluded for analyzing ILCs by staining for CD3ε (145-2C11), CD5 (53-7.3), CD19 (6D5), CD11b (M1/70), CD8 (53-6.7), CD11c (N418), Gr-1 (RB6-8C5), TCRγδ (eBioGL3 (GL-3, GL3)) and TCRβ (H57-597). To analyze mast cells, lineage-positive cells were excluded by staining for CD3ε, CD5, CD19, CD11c and SiglecF (E50-2440). For surface staining, antibodies for KLRG1 (2F1), CD45 (30-F11), CD127 (A7R34), CCR6 (29-2L17), NKp46 (29A1.4), CD90.2 (53-2.1), FcεRI (Mar-1), IgD (11-26c.2a) and ST2 (DJ8) were used. For intracellular staining, cells were fixed and permeabilized using the Foxp3 transcription factor staining buffer set, followed by staining with anti-GATA-3 (TWAJ) or anti-RORγt (B2D) antibodies. Dead cells were excluded with 7-AAD or Fixable Viability Dye eFluor 780. Flow cytometry was performed on Cytoflex (Beckman Coulter) and analyzed with FlowJo software. Sorting was performed with the SH800S Cell Sorter (Sony Biotechnology).
Immunofluorescence staining and imaging. The small intestines were fixed in 2% PFA, embedded in O.C.T. Compound and sliced into 10 μm by frozen section. The slides were blocked with 0.1% Triton X-100, 2% FCS and donkey serum. […] The images were analyzed with ImageJ.

intestinal ILC2s = assay: OVA food allergy model with intragastric α-CGRP; format: in vivo, mouse; details: α-CGRP intragastrically together with OVA, pre-sensitized mice; P=0.02, P=0.009, t-test
Text: as §1
To induce allergic reaction to OVA, 6 to 7 weeks old mice were sensitized twice, two weeks apart, with 50 μg of OVA plus 1 mg of aluminum potassium sulfate adjuvant via intraperitoneal injection. Two weeks later, mice were orally administered with 50 mg of OVA on every other day for a total of five times. […]
Flow cytometry and cell sorting. […] Flow cytometry was performed on Cytoflex (Beckman Coulter) and analyzed with FlowJo software. […]

KLRG1+ ILC2s [2] = assay: In vitro proliferation assay (CellTrace Violet, flow cytometry); format: cell-based, mouse; details: IL-25 plus α-CGRP, 60 hours; P=0.01, t-test
Experimental: as §2
ILC2 culture. […]

α-CGRP: neuropeptide alpha-calcitonin gene-related peptide, encoded by exon 5 of Calca; administered as peptide
frequency of KLRG1+ST2− ILC2s in mLNs (KLRG1+ ILC2s [1]; IL-25 co-administered with α-CGRP): reduced
IL-25-induced expansion of KLRG1+ ILC2s (KLRG1+ ILC2s [1]; intraperitoneal α-CGRP with IL-25, small intestine, IF): impaired
expansion of intestinal ILC2s in a food allergy model (intestinal ILC2s): significantly suppressed
IL-25-induced cell division (KLRG1+ ILC2s [2]): significantly suppressed
